Measurements from ChEMBL document CHEMBL5532662, “Exploiting the Carboxylate-Binding Pocket of β-Lactamase Enzymes Using a Focused DNA-Encoded Chemical Library” (J Med Chem, 2024).
Values belong to the compound of their own block, whether it stands above or below them.

Assays:
[1] = Binding affinity to his-tagged OXA-48 (unknown origin) expressed in Escherichia coli BL21 (DE3) cells assessed as inhibition constant using nitrocefin as substrate by Morrison equation based analysis; design: species or system Bacteria
Escherichia coli [2] = test: Synergistic antimicrobial activity against Escherichia coli expressing […] assessed as imipenem MIC at 128 ug/ml incubated for 18 hrs by microdilution method (reference value: 8 ug/ml); assay type: functional; details: dose 128 µg/ml
Escherichia coli [3] = test: Synergistic antimicrobial activity against Escherichia coli expressing […] assessed as imipenem MIC at 16 ug/ml incubated for 18 hrs by microdilution method (reference value: 8 ug/ml); assay type: functional; details: dose 16 µg/ml
Escherichia coli [4] = test: Synergistic antimicrobial activity against Escherichia coli expressing […] assessed as imipenem MIC at 64 ug/ml incubated for 18 hrs by microdilution method (reference value: 8 ug/ml); assay type: functional; details: dose 64 µg/ml
[5] = Drug accumulation in Escherichia coli assessed per 10^12 CFU incubated for 10 mins under shaking condition by LC-MS/MS analysis; assay type: ADME
Escherichia coli [6] = test: Synergistic antimicrobial activity against Escherichia coli expressing […] assessed as imipenem MIC at 32 ug/ml incubated for 18 hrs by microdilution method (reference value: 8 ug/ml); assay type: functional; details: dose 32 µg/ml
[7] = molecular target: T1, Metallo-beta-lactamase type 2 (Bacteria, UniProt C7C422); test: biochemical
Escherichia coli [8] = test: Synergistic antimicrobial activity against Escherichia coli expressing […] assessed as imipenem MIC at 8 ug/ml incubated for 18 hrs by microdilution method (reference value: 8 ug/ml); assay type: functional; details: dose 8 µg/ml
[9] = molecular target: T1, Metallo-beta-lactamase type 2; test: biochemical; remark: listed apart in the source

T1 sequence (C7C422 whole entry): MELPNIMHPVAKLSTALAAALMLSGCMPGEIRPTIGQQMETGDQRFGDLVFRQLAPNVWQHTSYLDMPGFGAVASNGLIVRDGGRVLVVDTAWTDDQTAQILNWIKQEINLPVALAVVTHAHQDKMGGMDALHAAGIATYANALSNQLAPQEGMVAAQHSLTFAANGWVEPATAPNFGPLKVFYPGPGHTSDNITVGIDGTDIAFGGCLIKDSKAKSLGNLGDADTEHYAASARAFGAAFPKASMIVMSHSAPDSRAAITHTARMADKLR

Structure (SMILES): CN(C)C(=O)C1CCN(c2ccc(CNCc3ccccc3-c3cccc(C(=O)O)c3)cc2C#N)CC1
Ki [1]: 8 µM

Structure (SMILES): NCc1cccc(NCc2cccc(-c3ccc(C(=O)O)c(O)c3)n2)c1
MIC (Escherichia coli [2]): 2 mg/L
MIC (Escherichia coli [3]): 4 mg/L
MIC (Escherichia coli [4]): 4 mg/L
Drug uptake [5]: Active
MIC (Escherichia coli [6]): 4 mg/L

Structure (SMILES): Cc1cccc(NCc2cccc(-c3ccc(C(=O)O)c(O)c3)c2)c1
Ki [7]: > 100 µM

Structure (SMILES): NCc1cccc(NCc2ccnc(-c3ccc(C(=O)O)c(O)c3)c2)c1
MIC (Escherichia coli [2]): 4 mg/L
MIC (Escherichia coli [3]): 8 mg/L
MIC (Escherichia coli [4]): 4 mg/L
MIC (Escherichia coli [6]): 8 mg/L

Structure (SMILES): NCc1cc(O)cc(NCc2cccc(-c3ccc(C(=O)O)c(O)c3)c2)c1
MIC (Escherichia coli [2]): 4 mg/L
MIC (Escherichia coli [3]): 4 mg/L
MIC (Escherichia coli [4]): 4 mg/L
MIC (Escherichia coli [6]): 4 mg/L

Structure (SMILES): NCc1cccc(NCc2ccc(-c3ccc(C(=O)O)c(O)c3)o2)c1
MIC (Escherichia coli [2]): 4 mg/L
MIC (Escherichia coli [3]): 4 mg/L
MIC (Escherichia coli [4]): 4 mg/L
MIC (Escherichia coli [6]): 4 mg/L

Structure (SMILES): NCc1cccc(NCc2cccc(-c3ccc(C(=O)O)c(O)c3)c2)c1
Ki [7]: 0.6 µM
MIC (Escherichia coli [3]): 4 mg/L
MIC (Escherichia coli [4]): 4 mg/L
MIC (Escherichia coli [8]): 4 mg/L
Drug uptake [5]: Active
MIC (Escherichia coli [6]): 4 mg/L

Structure (SMILES): NCc1cccc(N2Cc3ccc(-c4ccc(C(=O)O)c(O)c4)cc3C2)c1
Ki [7]: 50 µM
MIC (Escherichia coli [2]): 8 mg/L
MIC (Escherichia coli [3]): 8 mg/L
MIC (Escherichia coli [4]): 8 mg/L
MIC (Escherichia coli [6]): 8 mg/L

Structure (SMILES): NCc1cccc(NCc2cc(-c3ccc(C(=O)O)c(O)c3)ccn2)c1
MIC (Escherichia coli [2]): 4 mg/L
MIC (Escherichia coli [3]): 8 mg/L
MIC (Escherichia coli [4]): 4 mg/L
MIC (Escherichia coli [6]): 8 mg/L

Structure (SMILES): CC(=O)NCc1cccc(NCc2cccc(-c3ccc(C(=O)O)c(O)c3)c2)c1
Ki [7]: > 100 µM

Structure (SMILES): Cc1cc(CNc2cccc(CN)c2)cc(-c2ccc(C(=O)O)c(O)c2)c1
Ki [7]: 0.5 µM
MIC (Escherichia coli [3]): 4 mg/L
MIC (Escherichia coli [8]): 4 mg/L
MIC (Escherichia coli [6]): 4 mg/L

Structure (SMILES): CNCc1cccc(NCc2ccc(-c3ccc(C(=O)O)cc3)o2)c1
Ki [7]: 9 µM

Structure (SMILES): CNC(=O)CCc1ccc(CNCc2cccc(NCc3ccc(-c4ccc(C(=O)O)c(O)c4)o3)c2)cc1
MIC (Escherichia coli [2]): 8 mg/L
MIC (Escherichia coli [3]): 8 mg/L
MIC (Escherichia coli [4]): 8 mg/L
MIC (Escherichia coli [6]): 8 mg/L

Structure (SMILES): NCc1cccc(NCc2cc(C(=O)O)cc(-c3ccc(C(=O)O)c(O)c3)c2)c1
Ki [7]: 140 µM

Structure (SMILES): NCc1cccc(NCc2ccc(-c3cccc(C(=O)O)c3O)o2)c1
MIC (Escherichia coli [2]): 4 mg/L
MIC (Escherichia coli [3]): 8 mg/L
MIC (Escherichia coli [4]): 4 mg/L
MIC (Escherichia coli [6]): 4 mg/L

Structure (SMILES): CNCc1cccc(NCc2ccc(-c3ccc(C(=O)O)c(O)c3)o2)c1
MIC (Escherichia coli [2]): 4 mg/L
MIC (Escherichia coli [3]): 4 mg/L
MIC (Escherichia coli [4]): 4 mg/L
Drug uptake [5]: Not Active
MIC (Escherichia coli [6]): 4 mg/L

Structure (SMILES): COc1cc(-c2cc(O)cc(C(=O)O)c2)ccc1C(=O)O
Ki [1]: 0.6 µM

Structure (SMILES): NCc1cccc(NCc2cncc(-c3ccc(C(=O)O)c(O)c3)c2)c1
MIC (Escherichia coli [2]): 4 mg/L
MIC (Escherichia coli [3]): 8 mg/L
MIC (Escherichia coli [4]): 8 mg/L
MIC (Escherichia coli [6]): 8 mg/L

Structure (SMILES): CNCc1cccc(NCc2ccc(-c3cccc(C(=O)O)c3O)o2)c1
MIC (Escherichia coli [2]): 4 mg/L
MIC (Escherichia coli [3]): 8 mg/L
MIC (Escherichia coli [4]): 8 mg/L
MIC (Escherichia coli [6]): 8 mg/L

Structure (SMILES): NCc1cccc(NCc2ccc(-c3ccc(C(=O)O)c(O)c3)s2)c1
Ki [7]: 1.5 µM
MIC (Escherichia coli [2]): 4 mg/L
MIC (Escherichia coli [3]): 4 mg/L
MIC (Escherichia coli [4]): 4 mg/L
MIC (Escherichia coli [6]): 4 mg/L

Structure (SMILES): NCc1cccc(NC(=O)c2cccc(-c3ccc(C(=O)O)c(O)c3)c2)c1
Ki [7]: 30 µM
MIC (Escherichia coli [2]): 8 mg/L
MIC (Escherichia coli [3]): 8 mg/L
MIC (Escherichia coli [4]): 8 mg/L
MIC (Escherichia coli [6]): 8 mg/L

Structure (SMILES): Nc1cccc(CCCNCc2ccccc2-c2cccc(C(=O)O)c2)c1
Ki [1]: 130 µM

Structure (SMILES): NCc1cccc(NCc2cc(O)cc(-c3ccc(C(=O)O)c(O)c3)c2)c1
MIC (Escherichia coli [2]): 4 mg/L
MIC (Escherichia coli [3]): 4 mg/L
MIC (Escherichia coli [4]): 4 mg/L
MIC (Escherichia coli [6]): 4 mg/L

Structure (SMILES): CNCc1cccc(NCc2cccc(-c3ccc(C(=O)O)c(O)c3)c2)c1
MIC (Escherichia coli [2]): 4 mg/L
MIC (Escherichia coli [3]): 4 mg/L
MIC (Escherichia coli [4]): 4 mg/L
MIC (Escherichia coli [6]): 4 mg/L

Ki [9]: 500 µM
Structure (SMILES): CNCc1ccc(-c2ccc(C(=O)O)c(O)c2)o1
